In PubChem BioAssay AID2305 (GlaxoSmithKline (GSK), 2010):

The molecules below were run on P. falciparum 3D7 growth, pLDH absorbance (assay: P. falciparum 3D7 growth inhibition, dose response, strain 3D7 (AID 2305)).

Structure (SMILES) | IC50
CCCCCCCc1cc(O)c2c(c1)OC(C)(C)c1ccncc1-2 | 1150 nM
CC(Cc1ccc(OCc2ccccc2)cc1)NCC(O)c1cccc(Cl)c1 (configuration not stated) | 550 nM
O=C1COc2ccc(S(=O)(=O)N3CCC[C@@H]3CCN3CCC(c4c[nH]c5cnccc45)CC3)cc2N1 | 860 nM
Cc1cc(NN=Cc2cccc(F)c2)c2cc(F)ccc2n1 | 480 nM
CN1CCCC1CCNCc1cccc(-c2cnc(N(C)C3CCCCC3)nc2)c1 (configuration not stated) | 850 nM
COc1ccc(NC(=O)Nc2ccc(-c3cccc(-c4nc5ccccc5[nH]4)c3)cc2)cc1 | 760 nM
Cc1cc(O)c(CN2CCN(Cc3cccs3)CC2)cc1C(C)C | 720 nM
Cc1ccc2c(c1)c(C1CCN(C(=O)c3ccc([N+](=O)[O-])o3)CC1)cn2C | 750 nM
COc1ccc(Oc2ccccc2CNCC2CCN(CC3CCCCC3)CC2)cc1 | 900 nM
COc1cc2c(cc1OCCN1CCC(N3CCCC3)CC1)N(C(=O)/C=C/c1ccccc1Cl)CC2 | 660 nM
CC(C)CN1CCCN(Cc2cccc(NC(=O)c3ccc(-c4ccccc4)cc3)c2)CC1 | 880 nM
Cc1nc(C)c(CC(=O)Nc2ccc(-c3cccc(-c4nc5c(C)cccc5[nH]4)c3)cc2)s1 | 600 nM
COc1cc(NCCCNC(=O)c2cn(Cc3ccccc3)c3ccccc23)nc2ccccc12 | 870 nM
Cn1c(N)c(C(=O)CSc2nnc(-c3cccs3)n2Cc2ccccc2)c(=O)n(C)c1=O | 790 nM
O=C(Nc1cccc(-c2nn3ncccc3c2-c2ccnc(Nc3cccnc3)n2)c1)c1c(F)cccc1F | 530 nM
CCCCCCNC(=O)C1Cc2c([nH]c3ccc(Br)cc23)C2(CCN(CCc3ccccc3)CC2)N1 (configuration not stated) | 790 nM
COC(=O)/C=C/c1ccc(CC(C)NCC(O)c2cccc(Cl)c2)cc1 (configuration not stated) | 750 nM
Oc1cc(Nc2ccnc3cc(-c4cccc(CN5CCCCC5)c4)ccc23)c(F)cc1Cl | 100 nM
CCCNC(=O)c1cncc(-c2cccc(CNC3Cc4ccccc4C3)c2)c1 | 800 nM
CC(C)(CNC(=O)C1CCN(CC2CCCCC2)CC1)c1nc(-c2ccc(Cl)c(O)c2)c(-c2ccncc2)[nH]1 | 890 nM
CC(C)n1ncc2c(C(=O)N3CCCCCC3)cc(-c3ccccc3)nc21 | 790 nM
OC1CCN(c2cc(-c3ccccn3)nc(-c3ccccn3)n2)CC1 | 1050 nM
Cc1ccccc1C1CCN(C2CCC(NC(=O)C3=Cc4cc(Cl)ccc4OC3)CC2)CC1 (configuration not stated) | 890 nM
Cn1cnc2c(SCc3ccc(OCc4ccccc4)cc3)ncnc21 | 560 nM

Structure (SMILES) | IC50
NC1=NC2(CCCCC2)N(Cc2ccc(Cl)c(Cl)c2)C(N)=N1 | 620 nM
COc1c(C2CCN(CCCCNC(=O)c3cc(-c4ccc(Cl)cc4)[nH]c3C)CC2)ccc2c1CCCC2 | 970 nM
CN1CCCC1CNS(=O)(=O)c1ccc(C(=O)NCC2CC2)cc1 (configuration not stated) | 170 nM
CCCOc1ccc(CNCCCCCCNCc2ccc(OCCC)c3ccccc23)c2ccccc12 | 410 nM
CN1CCN(c2ccnc3cc4c(cc23)N(C(=O)Nc2ccc(-c3ccncc3)c3ccccc23)CC4)CC1 | 950 nM
Nc1nc(N)c2c(Oc3cccnc3)cccc2n1 | 890 nM
CS(=O)(=O)Nc1ccc2[nH]cc(C3CCN(CC(O)C4CCN(C(=O)/C=C/c5ccc(Cl)c(Cl)c5)CC4)CC3)c2c1 (configuration not stated) | 1760 nM
Oc1ccc(-c2ccccc2)cc1CN1CCCCC1 | 900 nM
COc1cccc(C=NNc2cc(C)nc3ccccc23)c1 | 940 nM
O=C(Nc1cccc(-c2nn3ccccc3c2-c2ccnc(Nc3cccc(F)c3)n2)c1)c1c(F)ccc(F)c1F | 860 nM
CN1CCCN(Cc2cccc(-c3cccc(NC(=O)c4ccc(C#N)cc4)c3)c2)CC1 | 1140 nM
O=c1cc(NCCCNCc2cccc(SC(F)(F)F)c2)[nH]c2ccccc12 | 720 nM
COc1ccc(NC(=O)Nc2ccc(Nc3nc(C)cc(N4CCCC4)n3)cc2)cc1 | 140 nM
CCN(CC)CCCNc1nccc(N(C)c2ccc(NC(=O)Nc3cc(C(F)(F)F)ccc3F)cc2)n1 | 1050 nM
CC(=O)c1ccc(N2CCN(C(=O)Nc3ccc(Cl)cc3)CC2)cc1 | 980 nM
CN1CCN(CC(=O)Nc2ccc(-c3ccc(-c4nc5ccccc5[nH]4)cc3)cc2)CC1 | 700 nM
COc1ccc(S(=O)(=O)NCCCC2CCN(CCCCCNC(=O)C=Cc3ccc(Cl)c(Cl)c3)CC2)cc1 | 1040 nM
CC(C)CN1CCCN(Cc2cccc(NC(=O)c3cc4ccccc4s3)c2)CC1 | 1770 nM
CN(C)CCCn1c(C(=O)OC(c2ccccc2)c2ccccc2)cc2cc(OCc3ccccc3)ccc21 | 200 nM
O=C(Cc1ccccc1)NC(c1ccco1)c1cc(Cl)c2cccnc2c1O (configuration not stated) | 690 nM
Cc1nc(-c2nc(NCCc3c(C)noc3C)ncc2-c2ccsc2)sc1C | 260 nM
Cc1cccc2[nH]c(-c3cccc(-c4cccc(NC(=O)Nc5ccc(F)c(F)c5F)c4)c3)nc12 | 110 nM
COc1ccc(NC(=O)[C@H](Cc2ccccc2)Nc2cc(C)nc(NCC3CCCCC3)n2)cc1 | 680 nM
COc1ccc(OCCON)cc1 | 200 nM

Structure (SMILES) | IC50
CCNc1cc(C(=O)N[C@@H](Cc2ccccc2)[C@H](O)CNC2C3CC4CC(C3)CC2C4)cc(N2CCCCS2(=O)=O)c1 (some centres not stated) | 670 nM
Cc1ccc2nc(/N=C(\N)NC(=O)NC3CCCCC3)nc(C)c2c1 | 620 nM
CCCN1CCC(c2c[nH]c3ccc(NC(=O)Nc4cccc(Cl)c4Cl)cc23)CC1 | 810 nM
O=C(NCCCCCN1CCC(c2c[nH]c3ccccc23)CC1)c1ccc(-c2ccccc2)nc1 | 1020 nM
O=C(Nc1ccc(Cl)cc1)Nc1ccc2nonc2c1 | 1100 nM
CCOC(=O)c1ccc(NC(=O)Nc2ccc(-c3ccc(-c4nc5ccccc5[nH]4)cc3)cc2)cc1 | 20 nM
CN(C)S(=O)(=O)n1ccc2c3c(N)nc(N)nc3ccc21 | 50 nM
COc1cccc(C=CC(=O)NC2CCC(CN3CCC(c4c[nH]c5ccccc45)CC3)CC2)c1OC (configuration not stated) | 740 nM
COc1ccc2nccc([C@@H](O)CN3CCC(NC(=O)c4cc5c(F)cc(F)cc5[nH]4)CC3)c2n1 | 1390 nM
CN1CCN(c2ccc(-c3cccc(NC(=O)c4cccc([N+](=O)[O-])c4)c3)nn2)CC1 | 530 nM
O=C(Nc1ccc(Cl)cc1F)NC1CCN(CCCCCNC(=O)[C@@H]2C[C@H]2c2ccc(Cl)c(Cl)c2)CC1 | 510 nM
COc1cc(NC(=O)c2c(-c3c(Cl)cccc3Cl)noc2C)c(OC)cc1Cl | 920 nM
N=C(N)c1ccc(C=Cc2ccc(C(=N)N)cc2O)cc1 | 100 nM
Cc1cc(C)c(NC(=O)N2CCCN(CCCCCNC(=O)/C=C/c3ccc(Cl)c(Cl)c3)CC2)c(C)c1 | 970 nM
COc1ccc2nccc([C@@H](O)CN3CCC(NCc4ccc5scnc5c4)CC3)c2c1 | 400 nM
COc1ccc2nccc([C@@H](O)CN3CC[C@H](NCc4ccc5c(n4)NC(=O)CS5)[C@H](F)C3)c2c1 | 910 nM
Nc1nc(N)c2cc(CNc3ccc(Cl)c(Cl)c3)ccc2n1 | 1020 nM
N=C(N)c1ccc(NC(=O)c2cc(Sc3ccc(O)c(C(=O)Nc4ccc(C(=N)N)cc4)c3)ccc2O)cc1 | 120 nM
CSc1ccc(NC(=O)Nc2cc(C)nc3ccccc23)cc1Br | 780 nM
CCCCCC(C)N=C(Nc1ccc(C#N)cc1O)Nc1ccccc1Br (configuration not stated) | 750 nM
Cc1onc(-c2c(Cl)cccc2Cl)c1C(=O)NC1=NC(C)(C)ON1c1ccccc1 | 1070 nM
CC1CCCN(C(=O)c2cc(-c3ccccn3)nc3c(Cl)cccc23)C1 (configuration not stated) | 1080 nM
Cc1[nH]c(C)c(-c2cc3ccccc3o2)c(=O)c1Cl | 1720 nM
O=C1CCCN1CCCNCc1ccc(-c2cccc(-c3nc4ccc(C(F)(F)F)cc4[nH]3)c2)cc1 | 190 nM
